Consider 12 compounds from US12539292B2, “BRM targeting compounds and associated methods of use” (Arvinas Operations, Inc., priority 2018, dated 2026).

The assay concerns the target T1, BRM (Homo sapiens, UniProt P51531).
T1 construct: In-Cell Western Screen of BRM Degradation in SW1573 Cells; endogenous in cells; host or cells: SW1573
Nature of the assay: In-cell Western screen of BRM degradation in SW1573 cells (Dmax and DC50). Type of assay: cell-based. In a few lines: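 SW1573, overnight cpd exposure (18-20 h), 0.1% DMSO final. PFA fix, 0.5% Triton permeabilization, block; IR secondaries at 800/680 nm. Odyssey read → Dmax, DC50.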

Setting [1] is: BRM degradation, SW1573 cells, read-out: DC50.
[2] abbreviates: SW1573, % degraded, when tested at the top concentration of between 0.3 and 10 μM, read-out: BRM Dmax (%).
[3] abbreviates: degradation of BRM, read-out: BRM DC50.
Setting [4] is: BRM degradation, SW1573 cells, when tested at the top concentration of between 0.3 and 10 μM, read-out: Dmax (%) (% degraded).
Where [5] appears, read: target protein degradation, read-out: BRM DC50.

Where two headings read alike, the source gives them in different places.

T1 sequence (P51531 whole entry): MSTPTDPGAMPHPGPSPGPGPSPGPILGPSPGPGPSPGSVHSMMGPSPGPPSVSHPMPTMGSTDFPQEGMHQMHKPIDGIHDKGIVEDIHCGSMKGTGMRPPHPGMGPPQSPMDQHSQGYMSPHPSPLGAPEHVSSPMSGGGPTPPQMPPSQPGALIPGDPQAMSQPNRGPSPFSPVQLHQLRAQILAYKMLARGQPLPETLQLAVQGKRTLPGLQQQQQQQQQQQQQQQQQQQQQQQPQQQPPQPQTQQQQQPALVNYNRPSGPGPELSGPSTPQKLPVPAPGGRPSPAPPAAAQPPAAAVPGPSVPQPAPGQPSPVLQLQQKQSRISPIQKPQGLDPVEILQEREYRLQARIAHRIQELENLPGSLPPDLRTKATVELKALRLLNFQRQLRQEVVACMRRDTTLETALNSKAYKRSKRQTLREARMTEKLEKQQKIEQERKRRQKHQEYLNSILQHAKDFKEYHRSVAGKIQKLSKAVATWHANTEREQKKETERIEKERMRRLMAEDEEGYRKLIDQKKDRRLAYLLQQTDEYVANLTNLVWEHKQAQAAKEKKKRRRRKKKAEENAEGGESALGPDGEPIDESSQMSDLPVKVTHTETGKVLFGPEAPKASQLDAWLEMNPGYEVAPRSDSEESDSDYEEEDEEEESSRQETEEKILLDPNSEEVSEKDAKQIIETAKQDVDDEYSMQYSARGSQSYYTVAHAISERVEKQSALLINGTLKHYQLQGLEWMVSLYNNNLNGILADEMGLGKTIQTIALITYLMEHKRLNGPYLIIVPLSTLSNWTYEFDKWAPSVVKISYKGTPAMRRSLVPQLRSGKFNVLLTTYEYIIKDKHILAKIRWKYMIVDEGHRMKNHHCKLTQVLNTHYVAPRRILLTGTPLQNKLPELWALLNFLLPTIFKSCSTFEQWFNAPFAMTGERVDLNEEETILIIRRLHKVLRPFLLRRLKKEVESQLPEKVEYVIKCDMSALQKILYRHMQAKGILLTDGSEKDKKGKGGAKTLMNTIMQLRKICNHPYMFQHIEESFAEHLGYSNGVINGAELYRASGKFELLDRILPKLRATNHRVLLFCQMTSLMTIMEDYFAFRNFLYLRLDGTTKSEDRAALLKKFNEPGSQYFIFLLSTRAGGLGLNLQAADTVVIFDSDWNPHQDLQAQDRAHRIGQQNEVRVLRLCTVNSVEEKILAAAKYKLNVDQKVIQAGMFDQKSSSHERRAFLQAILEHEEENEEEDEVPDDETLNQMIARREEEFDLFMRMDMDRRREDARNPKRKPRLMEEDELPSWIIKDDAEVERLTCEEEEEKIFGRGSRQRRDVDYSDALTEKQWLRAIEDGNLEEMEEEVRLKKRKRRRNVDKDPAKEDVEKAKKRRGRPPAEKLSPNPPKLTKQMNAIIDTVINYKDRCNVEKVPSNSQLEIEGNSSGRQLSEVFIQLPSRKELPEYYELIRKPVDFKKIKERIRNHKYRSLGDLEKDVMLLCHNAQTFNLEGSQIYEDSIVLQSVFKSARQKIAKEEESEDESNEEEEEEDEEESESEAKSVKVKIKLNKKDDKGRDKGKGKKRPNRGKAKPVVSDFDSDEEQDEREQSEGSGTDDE

`Cc1ncsc1-c1ccc([C@H](C)NC(=O)[C@@H]2C[C@@H](O)CN2C(=O)[C@@H](c2cc(CCCN3CCC(O[C@H]4C[C@H](Oc5cc(N6C7CCC6CN(c6cc(-c8ccccc8O)nnc6N)C7)ccn5)C4)CC3)no2)C(C)C)cc1` [compound 191, (2S,4R)-1-((2R)-2-(3-(3-(4-((1r,3R)-3-((4-(3-(3-amino-6-(2-hydroxyphenyl)pyridazin-4-yl)-3,8-diazabicyclo[3.2.1]octan-8-yl)pyridin-2-yl)oxy)cyclobutoxy)piperidin-1-yl)propyl)isoxazol-5-yl)-3-methylbutanoyl)-4-hydroxy-N-((S)-1-(4-(4-methylthiazol-5-yl)phenyl)ethyl)pyrrolidine-2-carboxamide]: the half-maximal degradation concentration (DC50) under setting [1] was < 2.5 nM. Moreover, the Dmax (BRM degradation, SW1573 cells, tested at the top concentration of between 0.3 and 10 μM, read-out: Dmax (%) (% degraded)) is > 75%.

As to `Cc1ncsc1-c1ccc([C@H](CN)NC(=O)[C@@H]2C[C@@H](O)CN2C(=O)[C@H](c2cc(OCCN3CCN(CCOc4cc(N5C6CCC5CN(c5cc(-c7ccccc7O)nnc5N)C6)ccn4)CC3)no2)C(C)C)cc1` [compound 290, (2S,4R)-N-((R)-2-amino-1-(4-(4-methylthiazol-5-yl)phenyl)ethyl)-1-((2S)-2-(3-(2-(4-(2-((4-(3-(3-amino-6-(2-hydroxyphenyl)pyridazin-4-yl)-3,8-diazabicyclo[3.2.1]octan-8-yl)pyridin-2-yl)oxy)ethyl)piperazin-1-yl)ethoxy)isoxazol-5-yl)-3-methylbutanoyl)-4-hydroxypyrrolidine-2-carboxamide], the DC50 under setting [1] was > 30 nM.

On to `Cc1ncsc1-c1ccc([C@H](C)NC(=O)[C@@H]2C[C@@H](O)CN2C(=O)[C@H](c2cc(N3CCC(O[C@H]4C[C@H](Oc5cc(N6C7CCC6CN(c6cc(-c8ccccc8O)nnc6N)C7)ccn5)C4)CC3)no2)C(C)C)cc1` [compound 403, (2S,4R)-1-((2S)-2-(3-(4-((1r,3S)-3-((4-(3-(3-amino-6-(2-hydroxyphenyl)pyridazin-4-yl)-3,8-diazabicyclo[3.2.1]octan-8-yl)pyridin-2-yl)oxy)cyclobutoxy)piperidin-1-yl)isoxazol-5-yl)-3-methylbutanoyl)-4-hydroxy-N-((S)-1-(4-(4-methylthiazol-5-yl)phenyl)ethyl)pyrrolidine-2-carboxamide], for which, under setting [2], the Dmax was > 75%. In addition, the 50% degradation concentration (DC50) under setting [3] is 2.5 to 10 nM.

`COCC[C@H](NC(=O)[C@@H]1C[C@@H](O)CN1C(=O)[C@@H](c1cc(N2CCC(CN3CCC(O[C@H]4C[C@H](Oc5cc(N6C7CCC6CN(c6cc(-c8ccccc8O)nnc6N)C7)ccn5)C4)CC3)CC2)no1)C(C)C)c1ccc(-c2scnc2C)cc1` [compound 670, (2S,4R)-1-((2R)-2-(3-(4-((4-((1r,3r)-3-((4-(3-(3-amino-6-(2-hydroxyphenyl)pyridazin-4-yl)-3,8-diazabicyclo[3.2.1]octan-8-yl)pyridin-2-yl)oxy)cyclobutoxy)piperidin-1-yl)methyl)piperidin-1-yl)isoxazol-5-yl)-3-methylbutanoyl)-4-hydroxy-N-((S)-3-methoxy-1-(4-(4-methylthiazol-5-yl)phenyl)propyl)pyrrolidine-2-carboxamide]: under setting [1], the DC50 is < 2.5 nM. For the same compound, the Dmax (BRM degradation, SW1573 cells, read-out: Dmax (% degraded)) was > 75%.

For `Cc1ncsc1-c1ccc([C@H](C)NC(=O)[C@@H]2C[C@@H](O)CN2C(=O)[C@@H](c2cc(N3CCN(CCN4CCC(O[C@H]5C[C@H](Oc6cc(N7C8CCC7CN(c7cc(-c9ccccc9O)nnc7N)C8)ccn6)C5)CC4)CC3)no2)C(C)C)cc1` [compound 144, (2S,4R)-1-((2R)-2-(3-(4-(2-(4-((1r,3r)-3-((4-(3-(3-amino-6-(2-hydroxyphenyl)pyridazin-4-yl)-3,8-diazabicyclo[3.2.1]octan-8-yl)pyridin-2-yl)oxy)cyclobutoxy)piperidin-1-yl)ethyl)piperazin-1-yl)isoxazol-5-yl)-3-methylbutanoyl)-4-hydroxy-N-((S)-1-(4-(4-methylthiazol-5-yl)phenyl)ethyl)pyrrolidine-2-carboxamide], the half-maximal degradation concentration (DC50) under setting [1] is < 2.5 nM. Moreover, the greatest degradation seen (Dmax) under setting [4] was > 75%.

Regarding `Cc1cnc(C)n1-c1ccc([C@H](C)NC(=O)[C@@H]2C[C@@H](O)CN2C(=O)[C@@H](c2cc(OCCN3CCC(O[C@H]4C[C@H](Oc5cc(N6C7CCC6CN(c6cc(-c8ccccc8O)nnc6N)C7)ccn5)C4)CC3)no2)C(C)C)cc1` [compound 376, (2S,4R)-1-((2R)-2-(3-(2-(4-((1r,3R)-3-((4-(3-(3-amino-6-(2-hydroxyphenyl)pyridazin-4-yl)-3,8-diazabicyclo[3.2.1]octan-8-yl)pyridin-2-yl)oxy)cyclobutoxy)piperidin-1-yl)ethoxy)isoxazol-5-yl)-3-methylbutanoyl)-N-((S)-1-(4-(2,5-dimethyl-1H-imidazol-1-yl)phenyl)ethyl)-4-hydroxypyrrolidine-2-carboxamide], under setting [2], the maximal degradation (Dmax) was > 75%. Besides, the DC50 under setting [5] is 10 to 30 nM.

On to `CC(C)[C@@H](C(=O)N1C[C@H](O)C[C@H]1C(=O)N[C@@H](C)c1ccc(-n2ccccc2=O)cc1)c1cc(OCCN2CCC(O[C@H]3C[C@H](Oc4cc(N5C6CCC5CN(c5cc(-c7ccccc7O)nnc5N)C6)ccn4)C3)CC2)no1` [compound 373, (2S,4R)-1-((2R)-2-(3-(2-(4-((1r,3R)-3-((4-(3-(3-amino-6-(2-hydroxyphenyl)pyridazin-4-yl)-3,8-diazabicyclo[3.2.1]octan-8-yl)pyridin-2-yl)oxy)cyclobutoxy)piperidin-1-yl)ethoxy)isoxazol-5-yl)-3-methylbutanoyl)-4-hydroxy-N-((S)-1-(4-(2-oxopyridin-1(2H)-yl)phenyl)ethyl)pyrrolidine-2-carboxamide], for which the half-maximal degradation concentration (DC50) under setting [5] is > 30 nM.

On to `Cc1ncsc1-c1ccc([C@H](C)NC(=O)[C@@H]2C[C@@H](O)CN2C(=O)[C@H](c2cc(OCCC3CCN(C(=O)[C@H]4C[C@@H](CN5CCC(n6cc(-c7cc(-c8ccccc8O)nnc7N)cn6)CC5)C4)CC3)no2)C(C)C)cc1` [compound 465, (2S,4R)-1-((S)-2-(3-(2-(1-((1s,3R)-3-((4-(4-(3-amino-6-(2-hydroxyphenyl)pyridazin-4-yl)-1H-pyrazol-1-yl)piperidin-1-yl)methyl)cyclobutane-1-carbonyl)piperidin-4-yl)ethoxy)isoxazol-5-yl)-3-methylbutanoyl)-4-hydroxy-N-((S)-1-(4-(4-methylthiazol-5-yl)phenyl)ethyl)pyrrolidine-2-carboxamide], for which the Dmax under setting [2] was > 75%. For the same compound, the half-maximal degradation concentration (DC50) under setting [5] was < 2.5 nM.

As to `Cc1ncsc1-c1ccc([C@H](C)NC(=O)[C@@H]2C[C@@H](O)CN2C(=O)[C@@H](c2onc(OCCN3CCN(CCOc4cc(N5C6CCC5CN(c5cc(-c7ccccc7O)nnc5N)C6)ccn4)CC3)c2Cl)C(C)C)cc1` [compound 55, (2S,4R)-1-((2R)-2-(3-(2-(4-(2-((4-(3-(3-amino-6-(2-hydroxyphenyl)pyridazin-4-yl)-3,8-diazabicyclo[3.2.1]octan-8-yl)pyridin-2-yl)oxy)ethyl)piperazin-1-yl)ethoxy)-4-chloroisoxazol-5-yl)-3-methylbutanoyl)-4-hydroxy-N-((S)-1-(4-(4-methylthiazol-5-yl)phenyl)ethyl)pyrrolidine-2-carboxamide], the DC50 under setting [1] is < 2.5 nM. Besides, under setting [4], the Dmax was > 75%.

`Cc1ncsc1-c1ccc(CNC(=O)[C@@H]2C[C@@H](O)CN2C(=O)[C@@H](NC(=O)CN2CCN(c3ccc(CCOCCCc4cc(N5C6CCC5CN(c5cc(-c7ccccc7O)nnc5N)C6)ccn4)cn3)CC2)C(C)(C)C)cc1` [compound 48, (2S,4R)-1-((2S)-2-(2-(4-(5-(2-(3-(4-(3-(3-amino-6-(2-hydroxyphenyl)pyridazin-4-yl)-3,8-diazabicyclo[3.2.1]octan-8-yl)pyridin-2-yl)propoxy)ethyl)pyridin-2-yl)piperazin-1-yl)acetamido)-3,3-dimethylbutanoyl)-4-hydroxy-N-(4-(4-methylthiazol-5-yl)benzyl)pyrrolidine-2-carboxamide]: the 50% degradation concentration (DC50) under setting [1] is > 30 nM. Under setting [4], the Dmax was > 75%.

Regarding `Cc1ncsc1-c1cc(F)c([C@H](C)NC(=O)[C@@H]2C[C@@H](O)CN2C(=O)[C@@H](c2cc(OCCN3CCC(O[C@H]4C[C@H](Oc5cc(N6C7CCC6CN(c6cc(-c8ccccc8O)nnc6N)C7)ccn5)C4)CC3)no2)C(C)C)cn1` [compound 539, (2S,4R)-1-((2R)-2-(3-(2-(4-((1r,3R)-3-((4-(3-(3-amino-6-(2-hydroxyphenyl)pyridazin-4-yl)-3,8-diazabicyclo[3.2.1]octan-8-yl)pyridin-2-yl)oxy)cyclobutoxy)piperidin-1-yl)ethoxy)isoxazol-5-yl)-3-methylbutanoyl)-N-((S)-1-(4-fluoro-6-(4-methylthiazol-5-yl)pyridin-3-yl)ethyl)-4-hydroxypyrrolidine-2-carboxamide], for the setting “BRM degradation, SW1573 cells, Table 2D, read-out: **Dmax (%) (% degraded)”, the greatest degradation seen (Dmax) is > 75%. Also, the DC50 (BRM degradation, SW1573 cells, Table 2D, read-out: *DC50) was < 2.5 nM.

Consider `Cc1ncsc1-c1ccc([C@@H](C)NC(=O)[C@H]2C[C@H](O)CN2C(=O)[C@H](c2cc(OCCN3CCC(O)(CN4CC(Oc5cc(N6C7CCC6CN(c6cc(-c8ccccc8O)nnc6N)C7)ccn5)C4)CC3)no2)C(C)C)cc1` (mixture of isomers) [compound 446, rac-(2R,4S)-1-((2S)-2-(3-(2-(4-((3-((4-(3-(3-amino-6-(2-hydroxyphenyl)pyridazin-4-yl)-3,8-diazabicyclo[3.2.1]octan-8-yl)pyridin-2-yl)oxy)azetidin-1-yl)methyl)-4-hydroxypiperidin-1-yl)ethoxy)isoxazol-5-yl)-3-methylbutanoyl)-4-hydroxy-N-((R)-1-(4-(4-methylthiazol-5-yl)phenyl)ethyl)pyrrolidine-2-carboxamide], for which the DC50 under setting [3] is > 30 nM.
